In one test the target is Recombinant human PDE4B (Homo sapiens (Human), UniProt Q07343). Nature of the test: PDE4B enzyme inhibition, fluorescence polarization (Transcreener AMP2/GMP2). The class given is biochemical. The method, then:
The biological assay was based on fluorescence polarization measurement of AMP/GMP expression, that is, tracing binding of AMP/GMP antibody to indicate the activity of the enzyme.
Buffer solution for the assay: 10 mM trihydroxymethyl aminomethane-hydrochloric acid buffer solution (Tris-HCl) (pH 7.5), 5 mM MgCl2, 0.01% polyoxyethylene lauryl ether (Brij 35), 1 mM dithiothreitol (DTT), and 1% DMSO.
Enzyme: Recombinant human PDE4B (Genebank Accession Number NM_002600; amino acid 305 terminal) was expressed with baculovirus in Sf9 insect cells using N-terminal GST tag. MW=78 kDa.
Enzyme substrate: 1 μM cAMP
Detection: Transcreener® AMP2/GMP2 antibody and AMP2/GMP2 AlexaFluor633 tracing.
• 1. Dissolving the recombinant human PDE4B enzyme and enzyme substrate (1 μM cAMP) in freshly prepared assay buffer, respectively; • 2. Transferring the above PDE4B enzyme buffer solution to reaction wells; • 3. Adding compound 1 dissolved with 100% DMSO to reaction wells with the PDE4B enzyme buffer solution via acoustic technology (echo 550 nanoliter range) and incubating at room temperature for 10 min; • 4. […] The range of fluorescence polarization determination was Ex/Em=620/688. […]
The fluorescence polarization signal was converted into nM based on AMP/GMP standard curve and % enzyme activity calculated by Excel software relative to the DMSO control. […]

In test [1] the test system is PMA-induced ear edema in CD-1 mice. Nature of the test: In vivo model of PMA-induced ear edema in CD-1 mice. To be noted: for inhibition rate of ear edema / inhibition rate of ear weight gain: application BID, 10 hours after PMA induction. The method, then:
1 mL of acetone was added to completely dissolve 1 mg of PMA, and then 800 μL of mother liquor was pipetted and added to 2400 μL of acetone to prepare 0.25 mg/mL PMA.
CD-1 mice were sorted according to ear thickness and body weight. […] 10 μL of PMA with a concentration of 0.25 mg/mL was applied to the front and back sides of the right ear of each mouse.
The mice in the first group were normal mice, and these mice will not be treated in any way; the mice in the second group were given a vehicle; and the mice in the third group, the fourth group, and the fifth group were given compound 1 at a dose of 0.1 mg/ear, 0.3 mg/ear, and 1 mg/ear, respectively. Drugs were applied to the right ear of the mice 30 minutes before and 15 minutes after PMA induction, respectively.
Measurement and sampling: Ten hours after PMA induction, the mice were anesthetized and the thickness of the right ear was measured. After measuring the thickness of the right ear, the mouse was immediately euthanized, and the ear piece was collected and weighed.
The assay data was expressed as mean±standard error of mean (Mean±SEM), and the degree of ear swelling and ear weight were analyzed by one-way analysis of variance (One-way ANOVA), wherein p<0.05 was considered a significant difference.

Test [2] has as its system lipopolysaccharide (LPS)-induced TNFα production in human peripheral blood mononuclear cells. Description: Inhibition of LPS-induced TNFα production in hPBMC (ELISA). It counts as cell-based. How it is done:
Inhibitory activity of compound 1 on lipopolysaccharide (LPS)-induced TNFα production in human peripheral blood mononuclear cells.
PBMC cells were inoculated into a 96-well plate of cell culture grade at a density of 100,000 cells/100 μL/well. The cell culture medium was RPMI-1640 supplemented with 10% serum. The plate was incubated in a 37° C., 5% CO2 incubator for 2 hours. 16.8 μL/well of the assay compound was added to the cells and then the cells were incubated in a 37° C., 5% CO2 incubator for 60 minutes. 16.8 μL/well of LPS was then added to the cells and the cells were incubated in a 37° C., 5% CO2 incubator for 18 hours. The final DMSO concentration was 0.1%.
In the first step, compound 1 was diluted from a stock concentration to 1.5 mM with 100% DMSO. In the second step, the diluted compound was used as the first point and serially diluted 3-fold with 100% DMSO for 9 points. In the third step, the compound was diluted 125-fold with a serum-free medium, at which time the concentration of DMSO was 0.8%. Then 16.8 μL of the compound diluted with the medium was transferred to a 100 μL cell plate.
The compound was added, and then the cell plate was placed in a 37° C., 5% CO2 incubator and incubated for 1 hour.
In the first step, LPS was diluted with ultrapure water to a stock concentration of 1 mg/mL. […]

Recombinant human PDE4B, sequence (Q07343 305-736 limits assumed): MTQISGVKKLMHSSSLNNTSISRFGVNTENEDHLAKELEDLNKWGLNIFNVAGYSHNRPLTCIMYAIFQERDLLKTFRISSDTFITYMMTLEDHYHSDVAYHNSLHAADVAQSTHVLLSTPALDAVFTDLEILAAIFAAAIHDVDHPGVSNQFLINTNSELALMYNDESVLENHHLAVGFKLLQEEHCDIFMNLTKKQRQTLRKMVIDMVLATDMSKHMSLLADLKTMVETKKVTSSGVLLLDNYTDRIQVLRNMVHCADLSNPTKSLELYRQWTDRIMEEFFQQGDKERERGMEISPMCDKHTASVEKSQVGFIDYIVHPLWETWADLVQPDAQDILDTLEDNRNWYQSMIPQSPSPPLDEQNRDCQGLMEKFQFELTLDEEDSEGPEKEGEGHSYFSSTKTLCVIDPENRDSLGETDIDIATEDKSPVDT

For the compound `CCOc1cc([C@@H](CS(C)(=O)=O)n2c(=O)[nH]c3cc(F)ccc32)ccc1OC` [Compound 1], the “in vitro activity of inhibiting PDE4B (in words)” value at Recombinant human PDE4B is listed as “excellent in vitro activity”. In addition, the IC50 at Recombinant human PDE4B (PDE4B, 1 μM cAMP substrate, average in triplicate) was found to be 26.2 nM; in test [2] (Homo sapiens, PBMC, TNFα production in hPBMC, LPS 18 hours, average in triplicate) it was 63.9 nM. Further, the “inhibition rate of ear edema” value in test [1] (0.1 mg/ear) came out at 22%; in test [1] (0.3 mg/ear) it was 39%; in test [1] (1 mg/ear), 88%. Also, the “inhibition rate of ear weight gain” value in test [1] (0.1 mg/ear) is recorded as 39%; in test [1] (0.3 mg/ear), 46%; in test [1] (1 mg/ear) it was 85%. In test [1] (three dose groups of 0.1, 0.3 and 1 mg/ear), the “effect on the symptoms of PMA-induced ear edema (in words)” value is given as “significant improvement effect”. Moreover, in test [2], the “in vitro activity of inhibiting TNFα production in hPBMC (in words)” value is on record as “excellent in vitro activity”.
